24 compounds from patent US10065948B2, “Histone deacetylase inhibitors and compositions and methods of use thereof” (CHDI Foundation, Inc., priority 2014, dated 2018) can be followed below.

For orientation: IC50 means the concentration at which inhibition is half-maximal. The low end stands for inhibition by little substance, the high end for a need for much substance.

Molecules are shown by their SMILES.

Assay [1] has as its system cellular histone deacetylase enzymatic activity in Jurkat E6-1 cells. Nature of the assay: Inhibition of cellular HDAC activity, Boc-Lys(Tfa)-AMC substrate (Cell Lys-TFA). It counts as cell-based. The procedure:
The potency of the compounds is quantified by measuring the cellular histone deacetylase enzymatic activity using the fluorogenic substrate, Boc-Lys(Tfa)-AMC. After penetration in Jurkat E6-1 cells, the substrate is deacetylated to Boc-Lys-AMC. After cell lysis and cleavage by trypsin, the fluorophore AMC is released from the deacetylated substrate only. The fluorescence of the sample is directly related to the histone deacetylase activity in the sample.
Jurkat E6.1 cells are cultured according to standard cell culture protocols in Jurkat E6.1 Growth Media (RPMI without phenol red, 10% FBS, 10 mM HEPES, and 1 mM Sodium Pyruvate). Jurkat E6.1 cells are counted using a Coulter Counter and resuspended in Jurkat E6.1 growth media at a concentration of 75,000 cells/35 μL. 35 μL or 75,000 cells is seeded into Greiner microtitre assay plates. The plates are then incubated at 37° C. and 5% CO2 while other assay components are being prepared.
Stocks of 70 μL aliquots of the 10 mM compound in DMSO are prepared and stored at −20° C. From one stock aliquot of each compound to be tested and the reference compound, a 16-point serial dilution is prepared according to Table 1 using a 125 μL 16-channel Matrix multi-channel pipette.
2 μL (200×) of each diluted solution and each control (full activity: 100% DMSO alone or full inhibition 1 mM) is stamped into V-bottom polypropylene 384-well compound plates using either the Bravo, Janus, or 12.5 μL 16-channel Matrix multi-channel pipette. Each well with the 200× compound solution is diluted 1:20 by the addition of 38 μL Jurkat assay buffer+DMSO (9.5% DMSO, RPMI without phenol red, 0.09% FBS, 9 mM Hepes, and 0.9 mM Sodium Pyruvate equilibrated to room temperature)
5× (500 μM) substrate is prepared just prior to the addition to the assay. The 5× substrate is prepared by diluting a 100 mM Boc-Lys(Tfa)-AMC in DMSO solution 1:200 by adding it drop-wise to Jurkat assay medium (RPMI without phenol red, 0.1% FBS, 10 mM Hepes, and 1 mM Sodium Pyruvate equilibrated to 37° C.) while vortexing at slow speed to prevent precipitation.
10 mL of 3× lysis buffer is prepared with 8.8 ml of 3× stock lysis buffer (50 mM Tris-HCl, pH 8.0, 137 mM NaCl, 2.7 mM KCl, 1 mM MgCl2, 1% Nonidet P40 Substitute equilibrated to room temperature) and 1.2 mL of 3 mg/mL Trypsin equilibrated to room temperature.
5 μL of each solution of 1:20 diluted compound from above is transferred to the Greiner microtitre assay plates with 75,000 cells/well using the Bravo. Cells are then incubated for 2 hours at 37° C. and 5% CO2. […] The cells are then incubated for 3 hours at 37° C. and 5% CO2. Next, 25 μL of 3× lysis buffer is added to each well using either the 125 μL 16 channel pipette or the Bravo. The assay plate is then incubated overnight (15-16 hours) at 37° C. and 5% CO2. The following day, the plates are shaken on an orbital shaker for 1 minute at 900 rpm. Finally the top read fluorescence (Excitation: 355 nm, Emission: 460 nm) is measured using PerkinElmer EnVision.

For assay [2], the system named is cellular histone deacetylase activity (Lys-Ac). The assay is described as follows: Inhibition of cellular HDAC activity (Cell Lys-Ac). The note with it: Lys-Ac substrate. It counts as cell-based.
Where [3] appears, read: Homo sapiens, Jurkat E6.1, Lys-TFA substrate.

As to `Cc1c(F)cccc1[C@]1(C(=O)NO)Cc2cnn(-c3c(F)cccc3F)c2C1` [Example 11, (S)-1-(2,6-Difluorophenyl)-5-(3-fluoro-2-methylphenyl)-N-hydroxy-1,4,5,6-tetrahydrocyclopenta[c]pyrazole-5-carboxamide], the figures for the IC50 in assay [1] (setting [3]) and in assay [2] were 0.027 µM and greater than 50 µM, respectively. With `Cc1cc(F)ccc1-n1cc2c(n1)C[C@](C(=O)NO)(c1cccc(F)c1C)C2` [Example 23, (S)-5-(3-fluoro-2-methylphenyl)-2-(4-fluoro-2-methylphenyl)-N-hydroxy-2,4,5,6-tetrahydrocyclopenta[c]pyrazole-5-carboxamide], the IC50 in assay [1] (setting [3]) was 0.134 µM; in assay [2] it was greater than 50 µM. As for `O=C(NO)[C@]1(c2ccccc2)CCc2ccccc21` [Example 87, E1-(abs)-N-Hydroxy-1-phenyl-2,3-dihydro-1H-indene-1-carboxamide], the values for the IC50 in assay [1] (setting [3]) and in assay [2] were 45.7 µM and greater than 50 µM, respectively. Turning to `Cc1c(F)cccc1C1(C(=O)NO)CCc2nn(-c3ccccc3F)cc2C1` (single isomer, unassigned) [Example 33, E1-(abs)-5-(3-Fluoro-2-methylphenyl)-2-(2-fluorophenyl)-N-hydroxy-4,5,6,7-tetrahydro-2H-indazole-5-carboxamide], the IC50 in assay [1] (Lys-TFA substrate) was 0.41 µM; in assay [2], greater than 50 µM.

As to `Cc1c(F)cccc1[C@]1(C(=O)NO)Cc2cnn(-c3ccc(Cl)cc3)c2C1` [Example 8, (S)-1-(4-Chlorophenyl)-5-(3-fluoro-2-methylphenyl)-N-hydroxy-1,4,5,6-tetrahydrocyclopenta[c]pyrazole-5-carboxamide], the IC50 was 0.103 µM in assay [1] (setting [3]) and greater than 50 µM in assay [2].

In the case of `Cc1c(F)cccc1C1(C(=O)NO)Cc2nc(-c3cccc(F)c3)sc2C1` (single isomer, unassigned) [Example 65, E2-(abs)-5-(3-fluoro-2-methylphenyl)-2-(3-fluorophenyl)-N-hydroxy-5,6-dihydro-4H-cyclopenta[d]thiazole-5-carboxamide], in assay [2], the IC50 was greater than 50 µM. On to `Cc1c(F)cccc1C1(C(=O)NO)CCc2nn(-c3ccccc3F)cc2C1` (single isomer, unassigned) [Example 34, E2-(abs)-5-(3-fluoro-2-methylphenyl)-2-(2-fluorophenyl)-N-hydroxy-4,5,6,7-tetrahydro-2H-indazole-5-carboxamide], for which the IC50 in assay [1] (Lys-TFA substrate) was 26.7 µM; in assay [2], greater than 50 µM. For the compound `Cc1c(F)cccc1[C@@]1(C(=O)NO)Cc2cnc(C3CC3)nc2C1` [Example 50, (R)-2-Cyclopropyl-6-(3-fluoro-2-methylphenyl)-N-hydroxy-6,7-dihydro-5H-cyclopenta[d]pyrimidine-6-carboxamide], the IC50 in assay [1] (setting [3]) is 0.12 µM; in assay [2], greater than 50 µM. Take `Cc1c(F)cccc1[C@]1(C(=O)NO)CCc2nc(C3CC3)sc21` [Example 72, (S)-2-Cyclopropyl-6-(3-fluoro-2-methylphenyl)-N-hydroxy-5,6-dihydro-4H-cyclopenta[d]thiazole-6-carboxamide]: the IC50 was 0.79 µM in assay [1] (setting [3]) and greater than 50 µM in assay [2].

Consider `Cc1c(F)cccc1[C@]1(C(=O)NO)Cc2cnc(-c3cccnc3)nc2C1` [Example 60, (S)-6-(3-Fluoro-2-methylphenyl)-N-hydroxy-2-(pyridin-3-yl)-6,7-dihydro-5H-cyclopenta[d]pyrimidine-6-carboxamide], for which the results for the IC50 in assay [1] (setting [3]) and in assay [2] were 0.2 µM and greater than 50 µM, respectively. The corresponding values for `Cc1c(F)cccc1[C@]1(C(=O)NO)CCc2c1cnn2-c1ccccc1` [Example 54, (R)-4-(3-Fluoro-2-methylphenyl)-N-hydroxy-1-phenyl-1,4,5,6-tetrahydrocyclopenta[c]pyrazole-4-carboxamide] are 0.32 µM and greater than 50 µM.

For the compound `O=C(NO)[C@@]1(c2ccccc2)CCc2ccccc21` [Example 88, E2-(abs)-N-hydroxy-1-phenyl-2,3-dihydro-1H-indene-1-carboxamide], the IC50 in assay [1] (setting [3]) and in assay [2] was greater than 50 µM in each case.

`O=C(NO)C1(c2ccccc2)Cc2ccccc2C1` [Example 89, N-Hydroxy-2-phenyl-2,3-dihydro-1H-indene-2-carboxamide]: the IC50 in assay [1] (setting [3]) and in assay [2] was greater than 50 µM in each case. Regarding `Cc1c(F)cccc1[C@@]1(C(=O)NO)Cc2snc(-c3ccccc3)c2C1` [Example 81, E2-(abs)-5-(3-Fluoro-2-methylphenyl)-N-hydroxy-3-phenyl-5,6-dihydro-4H-cyclopenta[d]isothiazole-5-carboxamide], the half-inhibitory concentration (IC50) was 5.6 µM in assay [1] (setting [3]) and greater than 50 µM in assay [2]. Regarding `Cc1ccccc1-n1ncc2c1CCC(C(=O)NO)(c1cccc(F)c1C)C2` (single isomer, unassigned) [Example 38, E2-(abs)-5-(3-fluoro-2-methylphenyl)-N-hydroxy-1-(o-tolyl)-4,5,6,7-tetrahydro-1H-indazole-5-carboxamide], the IC50 is 11.2 µM in assay [1] (Lys-TFA substrate) and greater than 50 µM in assay [2]. For the compound `Cc1c(F)cccc1[C@]1(C(=O)NO)Cc2cnn(-c3ccc(F)cc3Cl)c2C1` [Example 90, (S)-1-(2-Chloro-4-fluorophenyl)-5-(3-fluoro-2-methylphenyl)-N-hydroxy-1,4,5,6-tetrahydrocyclopenta[c]pyrazole-5-carboxamide], the IC50 was 0.015 µM in assay [1] (setting [3]) and greater than 50 µM in assay [2].

Take `Cc1cc(F)ccc1-n1ncc2c1C[C@](C(=O)NO)(c1cccc(F)c1C)C2` [Example 22, (S)-5-(3-Fluoro-2-methylphenyl)-1-(4-fluoro-2-methylphenyl)-N-hydroxy-1,4,5,6-tetrahydrocyclopenta[c]pyrazole-5-carboxamide]: the IC50 in assay [1] (setting [3]) is 0.011 µM; in assay [2], greater than 50 µM.

Consider `Cc1c(F)cccc1[C@@]1(C(=O)NO)CCc2nc(C3CC3)ncc21` [Example 51, (S)-2-cyclopropyl-5-(3-fluoro-2-methylphenyl)-N-hydroxy-6,7-dihydro-5H-cyclopenta[d]pyrimidine-5-carboxamide], for which the IC50 in assay [1] (setting [3]) is 1.4 µM; in assay [2], greater than 50 µM.

Turning to `Cc1c(F)cccc1[C@]1(C(=O)NO)Cc2cnc(C3CC3)nc2C1` [Example 52, (S)-2-Cyclopropyl-6-(3-fluoro-2-methylphenyl)-N-hydroxy-6,7-dihydro-5H-cyclopenta[d]pyrimidine-6-carboxamide], the results for the 50% inhibitory concentration (IC50) in assay [1] (setting [3]) and in assay [2] were 0.21 µM and greater than 50 µM, respectively.

Take `Cc1c(F)cccc1[C@@]1(C(=O)NO)Cc2nc(-c3ccc(F)cc3)sc2C1` [Example 66, (R)-5-(3-Fluoro-2-methylphenyl)-2-(4-fluorophenyl)-N-hydroxy-5,6-dihydro-4H-cyclopenta[d]thiazole-5-carboxamide]: the IC50 in assay [1] (setting [3]) is 0.098 µM; in assay [2], greater than 50 µM.

For `Cc1c(F)cccc1[C@@]1(C(=O)NO)CCc2nc(C3CC3)ncc21` (single isomer, unassigned) [Example 57], the IC50 in assay [1] (setting [3]) and in assay [2] was greater than 50 µM throughout. `Cc1ccccc1-n1ncc2c1CCC(C(=O)NO)(c1cccc(F)c1C)C2` (single isomer, unassigned) [Example 37, E1-(abs)-5-(3-Fluoro-2-methylphenyl)-N-hydroxy-1-(o-tolyl)-4,5,6,7-tetrahydro-1H-indazole-5-carboxamide]: the IC50 is 0.086 µM in assay [1] (Lys-TFA substrate) and greater than 50 µM in assay [2]. On to `Cc1ccccc1-n1ncc2c1C[C@](C(=O)NO)(c1cccc(F)c1C)C2` [Example 2, (S)-5-(3-Fluoro-2-methylphenyl)-N-hydroxy-1-(o-tolyl)-1,4,5,6-tetrahydrocyclopenta[c]pyrazole-5-carboxamide], for which the results for the IC50 in assay [1] (setting [3]) and in assay [2] were 0.014 µM and greater than 50 µM, respectively.

With `Cc1c(F)cccc1[C@]1(C(=O)NO)Cc2cnc(-c3ccc(F)cc3)nc2C1` [Example 55, (S)-6-(3-Fluoro-2-methylphenyl)-2-(4-fluorophenyl)-N-hydroxy-6,7-dihydro-5H-cyclopenta[d]pyrimidine-6-carboxamide], the half-inhibitory concentration (IC50) in assay [1] (setting [3]) is 0.26 µM; in assay [2], greater than 50 µM.
